# Measured values: US10717716B2, “1,3,4-oxadiazole derivative compounds as histone deacetylase 6 inhibitor, and the pharmaceutical composition comprising the same” (Chong Kun Dang Pharmaceutical Corp., priority 2015, dated 2020)
# pIC50: −log10 of the molar value.
# What was measured:
# human recombinant HDAC1 = molecular target: T1, human recombinant HDAC1 (Homo sapiens, UniProt Q13547); test: HDAC1 enzyme activity inhibition assay (HDAC Fluorimetric Drug Discovery Kit); format: biochemical; details: human recombinant HDAC1, Fluor de Lys substrate 10 μM, 30° C. 60 minutes
# T1 construct: purchased Enzo Life Science BML-SE456
# Method: In order to examine the HDAC6 selectivity of the compounds of formula I of the present invention by HDAC1 and HDAC6 enzymatic activity inhibition assays, an experiment was performed using a conventional substance as a control.
# HDAC enzyme activity was measured using a HDAC Fluorimetric Drug Discovery Kit (BML-AK511, 516, Enzo Life Science). For the HDAC1 enzyme activity test, human recombinant HDAC1 (BML-SE456) was used as an enzyme source, and Fluor de Lys®-“SIRT1 (BNL-KI177) was used as a substrate. A 5-fold dilution of the compound was seeded into a 96-well plate, and then 0.3 μg of the enzyme and 10 μM of the substrate were added to each well of the plate and allowed to react at 30° C. for 60 minutes. Then, Fluor de Lys®-Developer II (BML-KI176) was added thereto and allowed to react for 30 minutes, after which the fluorescence value (Ex 360, Em 460) was measured using a multi-plate reader (Flexstation 3, Molecular Device). The HDAC6 enzyme was tested using human recombinant HDAC6 (382180) (Calbiochem) according to the same protocol as the HDAC1 enzyme activity test method. Based on the resulting values, each IC5, value was calculated using GraphPad Prism4.0 program.
# human recombinant HDAC6 = molecular target: T2, human recombinant HDAC6 (Homo sapiens, UniProt Q9UBN7); test: HDAC6 enzyme activity inhibition assay (HDAC Fluorimetric Drug Discovery Kit); format: biochemical; details: for HDAC6 selectivity (fold): HDAC6 over HDAC1; for pIC50: human recombinant HDAC6, same protocol as HDAC1, read-out: HDAC6
# T2 construct: purchased Calbiochem 382180
# T2 sequence (Q9UBN7 1-1215): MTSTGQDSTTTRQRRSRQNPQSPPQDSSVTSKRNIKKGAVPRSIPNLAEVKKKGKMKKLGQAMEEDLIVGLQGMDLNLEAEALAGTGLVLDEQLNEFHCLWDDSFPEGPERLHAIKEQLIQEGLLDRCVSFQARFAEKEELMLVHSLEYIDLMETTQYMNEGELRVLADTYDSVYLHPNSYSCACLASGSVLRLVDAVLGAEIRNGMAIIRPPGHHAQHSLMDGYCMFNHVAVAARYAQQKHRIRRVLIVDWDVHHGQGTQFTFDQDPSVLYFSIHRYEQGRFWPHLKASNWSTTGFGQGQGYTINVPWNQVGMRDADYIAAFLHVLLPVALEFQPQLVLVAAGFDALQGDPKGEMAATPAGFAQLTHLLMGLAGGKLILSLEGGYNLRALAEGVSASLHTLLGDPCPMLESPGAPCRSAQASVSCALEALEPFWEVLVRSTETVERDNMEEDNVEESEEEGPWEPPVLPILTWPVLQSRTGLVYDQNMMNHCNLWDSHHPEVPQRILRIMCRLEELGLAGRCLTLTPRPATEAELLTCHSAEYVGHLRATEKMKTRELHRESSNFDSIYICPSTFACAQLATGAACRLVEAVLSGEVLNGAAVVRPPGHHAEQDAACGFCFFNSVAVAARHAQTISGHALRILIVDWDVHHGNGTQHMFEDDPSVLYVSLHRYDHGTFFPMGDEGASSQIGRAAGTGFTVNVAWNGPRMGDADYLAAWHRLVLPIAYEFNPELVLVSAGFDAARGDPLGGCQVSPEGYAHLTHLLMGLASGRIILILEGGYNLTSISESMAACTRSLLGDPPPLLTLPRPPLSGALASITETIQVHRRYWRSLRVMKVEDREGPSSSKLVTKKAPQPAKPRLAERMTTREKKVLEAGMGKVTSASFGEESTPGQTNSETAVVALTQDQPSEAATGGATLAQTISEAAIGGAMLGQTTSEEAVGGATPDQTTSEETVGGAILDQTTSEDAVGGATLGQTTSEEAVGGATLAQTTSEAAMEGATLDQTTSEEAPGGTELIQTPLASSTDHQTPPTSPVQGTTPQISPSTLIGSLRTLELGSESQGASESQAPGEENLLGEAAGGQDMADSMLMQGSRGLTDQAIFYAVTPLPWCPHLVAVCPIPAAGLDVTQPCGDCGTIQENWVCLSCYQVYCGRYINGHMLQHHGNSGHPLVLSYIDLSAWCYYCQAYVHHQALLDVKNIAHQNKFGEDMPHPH
# In short: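 Fluorimetric deacetylase assay: 5-fold serial compound dilutions, 0.3 μg recombinant human enzyme (HDAC1 or HDAC6, same protocol), 10 μM Fluor de Lys-SIRT1 substrate, 60 min at 30 °C. Signal developed 30 min, measured at 360/460 nm; IC50 values derived.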
# T1 sequence (Q13547 whole entry): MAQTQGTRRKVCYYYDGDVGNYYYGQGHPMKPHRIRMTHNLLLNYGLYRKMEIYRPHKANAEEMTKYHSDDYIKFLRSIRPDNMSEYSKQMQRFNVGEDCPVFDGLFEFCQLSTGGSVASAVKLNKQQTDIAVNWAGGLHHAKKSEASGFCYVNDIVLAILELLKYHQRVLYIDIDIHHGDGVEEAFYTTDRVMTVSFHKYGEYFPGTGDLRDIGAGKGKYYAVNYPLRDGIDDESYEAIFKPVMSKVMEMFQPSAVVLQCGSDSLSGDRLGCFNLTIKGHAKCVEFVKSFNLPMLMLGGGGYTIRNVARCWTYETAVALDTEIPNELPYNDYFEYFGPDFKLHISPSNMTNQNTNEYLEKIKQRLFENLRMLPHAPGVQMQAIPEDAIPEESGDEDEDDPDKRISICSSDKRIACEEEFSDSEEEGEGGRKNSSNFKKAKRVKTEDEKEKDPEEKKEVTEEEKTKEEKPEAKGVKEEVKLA
SMILES,pIC50 (human recombinant HDAC1),HDAC6 selectivity (fold) (human recombinant HDAC6),pIC50 (human recombinant HDAC6)
"O=C(N1CCOCC1)N(Cc1ccc(-c2nnc(C(F)(F)F)o2)cc1)c1ccccc1 [Compound 21249, N-phenyl-N-(4-(5-(trifluoromethyl)-1,3,4-oxadiazol-2-yl)benzyl)morpholine-4-carboxamide]",5.00,115,7.06
"O=C(N1CCS(=O)(=O)CC1)N(Cc1ccc(-c2nnc(C(F)(F)F)o2)cc1)c1ccc(F)cc1 [Compound 21389, N-(4-Fluorophenyl)-N-(4-(5-(trifluoromethyl)-1,3,4-oxadiazol-2-yl)benzyl)thiomorpholine-4-carboxamide 1,1-dioxide]",5.20,68,7.03
"COc1ccc(N(Cc2ccc(-c3nnc(C(F)(F)F)o3)cc2)C(=O)N2CCS(=O)(=O)CC2)cc1 [Compound 21390, N-(4-methoxyphenyl)-N-(4-(5-(trifluoromethyl)-1,3,4-oxadiazol-2-yl)benzyl)thiomorpholine-4-carboxamide 1,1-dioxide]",5.28,17,6.50
"O=C(N1CCS(=O)(=O)CC1)N(Cc1ccc(-c2nnc(C(F)(F)F)o2)cc1)c1cccc(Br)c1 [Compound 21393, N-(3-bromophenyl)-N-(4-(5-(trifluoromethyl)-1,3,4-oxadiazol-2-yl)benzyl)thiomorpholine-4-carboxamide 1,1-dioxide]",5.05,65,6.86
"O=C(N1CCS(=O)(=O)CC1)N(Cc1ccc(-c2nnc(C(F)(F)F)o2)cc1)c1cccc(-c2ccoc2)c1 [Compound 21435, N-(3-(furan-3-yl)phenyl)-N-(4-(5-(trifluoromethyl)-1,3,4-oxadiazol-2-yl)benzyl)thiomorpholine-4-carboxamide 1,1-dioxide]",5.47,12,6.54
"O=C(N1CCS(=O)(=O)CC1)N(Cc1ccc(-c2nnc(C(F)(F)F)o2)cc1)c1cccc(-c2cccnc2)c1 [Compound 21436, N-(3-(pyridin-3-yl)phenyl)-N-(4-(5-(trifluoromethyl)-1,3,4-oxadiazol-2-yl)benzyl)thiomorpholine-4-carboxamide 1,1-dioxide]",5.24,13,6.36
"O=C(N1CCS(=O)(=O)CC1)N(Cc1ccc(-c2nnc(C(F)(F)F)o2)cc1)c1cccc(-c2ccc3c(c2)OCO3)c1 [Compound 21437, N-(3-(benzo[d][1,3]dioxol-5-yl)phenyl)-N-(4-(5-(trifluoromethyl)-1,3,4-oxadiazol-2-yl)benzyl)thiomorpholine-4-carboxamide 1,1-dioxide]",5.09,11,6.13
"Cn1ncc2ccc(-c3cccc(N(Cc4ccc(-c5nnc(C(F)(F)F)o5)cc4)C(=O)N4CCS(=O)(=O)CC4)c3)cc21 [Compound 21438, N-(3-(1-methyl-1H-indazol-6-yl)phenyl)-N-(4-(5-(trifluoromethyl)-1,3,4-oxadiazol-2-yl)benzyl)thiomorpholine-4-carboxamide 1,1-dioxide]",5.57,4,6.12
"O=C(N1CCS(=O)(=O)CC1)N(Cc1ccc(-c2nnc(C(F)(F)F)o2)cc1)c1cccc(-c2ccccc2)c1 [Compound 21439, N-([1,1′-biphenyl]-3-yl)-N-(4-(5-(trifluoromethyl)-1,3,4-oxadiazol-2-yl)benzyl)thiomorpholine-4-carboxamide 1,1-dioxide]",5.21,6,6.00
"COc1cccc(N(Cc2ccc(-c3nnc(C(F)(F)F)o3)cc2)C(=O)N2CCS(=O)(=O)CC2)c1 [Compound 21441, N-(3-methoxyphenyl)-N-(4-(5-(trifluoromethyl)-1,3,4-oxadiazol-2-yl)benzyl)thiomorpholine-4-carboxamide 1,1-dioxide]",5.60,18,6.86
"Cc1cccc(N(Cc2ccc(-c3nnc(C(F)(F)F)o3)cc2)C(=O)N2CCS(=O)(=O)CC2)c1 [Compound 21442, N-(m-tolyl)-N-(4-(5-(trifluoromethyl)-1,3,4-oxadiazol-2-yl)benzyl)thiomorpholine-4-carboxamide 1,1-dioxide]",5.06,77,6.94
"CS(=O)(=O)c1ccc(N(Cc2ccc(-c3nnc(C(F)(F)F)o3)cc2)C(=O)N2CCOCC2)cc1 [Compound 21443, N-(4-(methylsulfonyl)phenyl)-N-(4-(5-(trifluoromethyl)-1,3,4-oxadiazol-2-yl)benzyl)morpholine-4-carboxamide]",5.13,20,6.44
"O=C(N1CCS(=O)(=O)CC1)N(Cc1ccc(-c2nnc(C(F)(F)F)o2)cc1)c1ccc(-c2ccccc2)cc1 [Compound 21485, N-([1,1′-biphenyl]-4-yl)-N-(4-(5-(trifluoromethyl)-1,3,4-oxadiazol-2-yl)benzyl)thiomorpholine-4-carboxamide 1,1-dioxide]",5.35,12,6.43
"O=C(N1CCOCC1)N(Cc1ccc(-c2nnc(C(F)F)o2)cc1F)c1nccs1 [Compound 22018, N-(4-(5-(Difluoromethyl)-1,3,4-oxadiazol-2-yl)-2-fluorobenzyl)-N-(thiazol-2-yl)morpholine-4-carboxamide]",,4,5.62
"O=C(N1CCOCC1)N(Cc1ccc(-c2nnc(C(F)F)o2)cc1F)c1cccs1 [Compound 22019, N-(4-(5-(Difluoromethyl)-1,3,4-oxadiazol-2-yl)-2-fluorobenzyl)-N-(thiophen-2-yl)morpholine-4-carboxamide]",,79,6.90
"O=C(N1CCS(=O)(=O)CC1)N(Cc1ccc(-c2nnc(C(F)F)o2)cc1F)c1cccs1 [Compound 22020, N-(4-(5-(Difluoromethyl)-1,3,4-oxadiazol-2-yl)-2-fluorobenzyl)-N-(thiophen-2-yl)thiomorpholine-4-carboxamide 1,1-dioxide]",,73,6.86
"O=C(N1CCS(=O)(=O)CC1)N(Cc1ccc(-c2nnc(C(F)F)o2)cc1F)c1ccsc1 [Compound 22021, N-(4-(5-(Difluoromethyl)-1,3,4-oxadiazol-2-yl)-2-fluorobenzyl)-N-(thiophen-3-yl)thiomorpholine-4-carboxamide 1,1-dioxide]",,101,7.00
"CCN1CCN(Cc2cccc(N(Cc3ccc(-c4nnc(C(F)F)o4)cc3F)C(=O)N3CCS(=O)(=O)CC3)c2)CC1 [Compound 22024, N-(4-(5-(difluoromethyl)-1,3,4-oxadiazol-2-yl)-2-fluorobenzyl)-N-(3-((4-ethylpiperazin-1-yl)methyl)phenyl)thiomorpholine-4-carboxamide 1,1-dioxide]",,36,6.55
